# Measured values from ChEMBL document CHEMBL2073960, “Cytotoxic and multidrug resistance reversal activity of a vegetable, 'Anastasia Red', a variety of sweet pepper” (Phytother Res, 2003).
# Molecular target: ATP-dependent translocase ABCB1 (Homo sapiens, UniProt P08183)
# Assay: TP_TRANSPORTER: increase in Rhodamine 123 intracellular accumulation in MDR1 transfected L-5178 mouse T-cell lymphoma cells
# Format: functional, cell-based
# ATP-dependent translocase ABCB1, sequence (P08183 whole entry): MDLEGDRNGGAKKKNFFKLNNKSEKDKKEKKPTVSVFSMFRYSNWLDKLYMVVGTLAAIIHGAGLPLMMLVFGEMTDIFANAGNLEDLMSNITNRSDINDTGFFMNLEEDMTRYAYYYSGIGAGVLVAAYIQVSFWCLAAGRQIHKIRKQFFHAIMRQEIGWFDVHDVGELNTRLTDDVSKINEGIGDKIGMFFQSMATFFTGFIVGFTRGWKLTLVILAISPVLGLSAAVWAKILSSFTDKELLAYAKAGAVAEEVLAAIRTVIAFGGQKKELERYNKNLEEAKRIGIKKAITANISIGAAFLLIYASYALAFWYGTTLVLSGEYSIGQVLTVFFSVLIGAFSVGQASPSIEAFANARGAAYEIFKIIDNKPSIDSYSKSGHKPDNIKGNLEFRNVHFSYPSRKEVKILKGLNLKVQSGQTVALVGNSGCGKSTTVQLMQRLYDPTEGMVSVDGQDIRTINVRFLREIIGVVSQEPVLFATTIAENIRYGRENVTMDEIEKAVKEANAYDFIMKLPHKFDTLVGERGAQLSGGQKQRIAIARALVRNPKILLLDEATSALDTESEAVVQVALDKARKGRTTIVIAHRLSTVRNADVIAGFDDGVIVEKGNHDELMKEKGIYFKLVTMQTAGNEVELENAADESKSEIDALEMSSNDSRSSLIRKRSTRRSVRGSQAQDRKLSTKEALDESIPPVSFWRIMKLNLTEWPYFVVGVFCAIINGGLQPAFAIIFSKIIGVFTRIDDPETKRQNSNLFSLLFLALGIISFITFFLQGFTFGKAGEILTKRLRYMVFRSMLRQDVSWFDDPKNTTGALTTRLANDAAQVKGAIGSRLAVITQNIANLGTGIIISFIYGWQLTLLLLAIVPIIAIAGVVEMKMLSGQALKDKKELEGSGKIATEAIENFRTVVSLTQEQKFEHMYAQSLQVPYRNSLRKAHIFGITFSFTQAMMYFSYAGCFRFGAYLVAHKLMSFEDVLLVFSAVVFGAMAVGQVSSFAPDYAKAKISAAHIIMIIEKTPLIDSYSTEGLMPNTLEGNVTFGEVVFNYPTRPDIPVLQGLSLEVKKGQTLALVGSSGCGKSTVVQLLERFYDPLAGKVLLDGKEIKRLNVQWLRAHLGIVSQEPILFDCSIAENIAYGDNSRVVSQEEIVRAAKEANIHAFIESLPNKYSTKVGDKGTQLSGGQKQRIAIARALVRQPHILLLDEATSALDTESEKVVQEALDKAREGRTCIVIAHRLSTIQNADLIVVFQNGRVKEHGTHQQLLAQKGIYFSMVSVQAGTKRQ
sequence,measurement,value
ANASTASIA RED EXTRACTS,Activity,inhibitor [+]
